Test results: paper PMC10254843, “Discovery of New 2-Phenylamino-3-acyl-1,4-naphthoquinones as Inhibitors of Cancer Cells Proliferation: Searching for Intra-Cellular Targets Playing a Role in Cancer Cells Survival” (Molecules, 2023)

Legend:
[1] = tested on: MCF-7 (mammary cancer cells); test: MTT cell survival assay, MCF-7 mammary cancer cells; assay type: cell-based; conditions: Homo sapiens, MCF7; MTT test; cells incubated at 37 °C for 48 h (Table 1 footnote); mean ± SEM, n = 3
Protocol: (§1) Human cancer cell lines from bladder (T24), prostate (DU–145), breast (MCF–7) and non-tumor HEK-293 cells were obtained from the American Type Culture Collection (ATCC, Manassas, VA, USA). The cultures were maintained at a density of 1–2 × 10^5 cells/mL and the medium was changed at 48- and 72-h intervals. They were cultured in high-glucose Dulbecco’s modified Eagle medium (Gibco, Grand Island, NY, USA) supplemented with 10% fetal calf serum, penicillin (100 U/mL) and streptomycin (100 μg/mL). All cultures were kept at 37 °C in 95% air/5% CO2 at 100% humidity. Phosphate-buffered saline (PBS) was purchased from Gibco. Cells were incubated at the indicated times at 37 °C with or without compounds 1–14 at various concentrations.
(§2) The cytotoxicity of the compounds 1–14 was assessed by following the reduction of MTT (3-(4,5-Dimethylthiazol-2-yl)-2,5-diphenyltetrazolium bromide) to formazan blue. […] Doxorubicin was used as a standard chemotherapeutic agent (positive control). Cells were washed twice with warm PBS and further incubated with MTT (0.5 mg/mL) for 2 h at 37 °C. Blue formazan crystals were solubilized by adding 100 µL DMSO/well, and the optical density of colored solutions was subsequently read at 550 nm in a microplate reader Tecan infinite M200 Pro (Männedorf, Switzerland). The compounds 1–14 were dissolved in DMSO (stock solution at 100 mM) and further diluted to be evaluated at the following concentrations: 0 μM, 1 μM, 10 μM, 20 μM, 40 μM, 60 μM, 80 μM and 100 μM. Results are expressed as % of MTT reduction compared to untreated control conditions. The IC50 values were calculated using the GraphPad Prism 8.0.2 software (San Diego, CA, USA).

[2] = tested on: non-tumorigenic HEK-293 (embryonic kidney cells); test: MTT cell survival assay, non-tumorigenic HEK-293 cells; assay type: cell-based; conditions: Homo sapiens, HEK293; MTT test; cells incubated at 37 °C for 48 h (Table 1 footnote); mean ± SEM, n = 3
Protocol: as §1, §2

[3] = tested on: DU-145 (prostate cancer cells); test: MTT cell survival assay, DU-145 prostate cancer cells; assay type: cell-based; conditions: Homo sapiens, MTT test, cells incubated at 37 °C for 48 h (Table 1 footnote), mean ± SEM, n = 3
Protocol: as §1, §2

[4] = Half-wave potentials by cyclic voltammetry; assay type: physicochemical; conditions: for −E^I½ (mV): acetonitrile, platinum electrode, room temperature, negative of the potential; for half-wave potential: signed value
Protocol: Calculation of lipophilicity (ClogP) and molar refractivity (CMR) was assessed by using the ChemBioDraw Ultra 11.0 software and the obtained values are shown in Table 3. Redox potentials of 2-phenylamino-3-acyl-1,4-naphtoquinones 1–14 were measured by cyclic voltammetry at room temperature in acetonitrile as solvent using a platinum electrode and 0.1M tetraethylammonium tetrafluoroborate as the supporting electrolyte.

[5] = tested on: T24 (Urinary bladder cancer cells); test: MTT cell survival assay, T24 urinary bladder cancer cells; assay type: cell-based; conditions: Homo sapiens; MTT test; cells incubated at 37 °C for 48 h (Table 1 footnote); mean ± SEM, n = 3
Protocol: as §1, §2

[6] = tested on: HEK-293 cells/tumour cells; test: Mean selective index, HEK-293 vs tumour cells; assay type: cell-based, human; conditions: MSI = IC50 values HEK-293 cells/IC50 values tumour cells
Protocol: (§3) The cytotoxicity of the compounds 1–14 was assessed by following the reduction of MTT (3-(4,5-Dimethylthiazol-2-yl)-2,5-diphenyltetrazolium bromide) to formazan blue. Cells were seeded into 96-well plates at a density of 10,000 cells/well for 24 h and then they were further incubated for 24 h with or without the quinones. Doxorubicin was used as a standard chemotherapeutic agent (positive control). Cells were washed twice with warm PBS and further incubated with MTT (0.5 mg/mL) for 2 h at 37 °C. Blue formazan crystals were solubilized by adding 100 µL DMSO/well, and the optical density of colored solutions was subsequently read at 550 nm in a microplate reader Tecan infinite M200 Pro (Männedorf, Switzerland). The compounds 1–14 were dissolved in DMSO (stock solution at 100 mM) and further diluted to be evaluated at the following concentrations: 0 μM, 1 μM, 10 μM, 20 μM, 40 μM, 60 μM, 80 μM and 100 μM. Results are expressed as % of MTT reduction compared to untreated control conditions. The IC50 values were calculated using the GraphPad Prism 8.0.2 software (San Diego, CA, USA).

[7] = tested on: TP53; test: RT-qPCR mRNA level of TP53 in DU-145 cells; assay type: cell-based, human; conditions: DU145 cells, 24 h; compound 4 at 1 µM, compound 11 at 6 µM; normalized to B2M, 2^−∆∆Ct vs vehicle (1.00); mean ± SEM
Protocol: (§4) The […] cells were cultured as previously mentioned. […] Afterwards, they were washed with phosphate-buffered saline. The cellular lysate was prepared with E.Z.N.A.®RNA-Lock Reagent (Omega Bio-tek, Norcross, GA, USA) to preserve and immediately stabilize the total RNA for the subsequent gene expression assays. The total RNA isolated from the cells using the E.Z.N.A.®HP Total RNA Isolation Kit (Omega Bio-tek) was reverse-transcribed to cDNA using the AffinityScript QPCR cDNA Synthesis Kit (Agilent Technologies, Santa Clara, CA, USA) and 1000 ng of the RNA sample.
(§5) The cDNA synthesized was employed for qPCR using Brilliant III Ultra-Fast SYBR®Green QPCR Master Mix (Agilent Technologies) in an Mx3000P qPCR System (Agilent Technologies), employing a 96-well plate with 20 μL of PCR reaction per well and 10 pmol each of forward and reverse gene-specific primers. Nine genes were analyzed: B2M, Bcl2, CDC25A, CCN2, GSR, HDAC4, mTOR, TNF, TP53 and their quantitative real-time (qPCR) primer sequences are reported in Table S1 (supplementary material). The relative gene expressions were determined using Beta-2-microglobulin (B2M) as housekeeping, and the delta-delta Ct method (2^−∆∆Ct method) with regard to the vehicle-treated group (i.e., the reference group). Five biological replicates were used from each group (treated and reference group). […]

[8] = tested on: GSR; test: RT-qPCR mRNA level of GSR in DU-145 cells; assay type: cell-based, human; conditions: DU145 cells, 24 h; compound 4 at 1 µM, compound 11 at 6 µM; normalized to B2M, 2^−∆∆Ct vs vehicle (1.00); mean ± SEM
Protocol: as §4, §5

[9] = tested on: CDC25A; test: RT-qPCR mRNA level of CDC25A in DU-145 cells; assay type: cell-based, human; conditions: DU145 cells, 24 h; compound 4 at 1 µM, compound 11 at 6 µM; normalized to B2M, 2^−∆∆Ct vs vehicle (1.00); mean ± SEM
Protocol: as §4, §5

[10] = tested on: TNF; test: RT-qPCR mRNA level of TNF in DU-145 cells; assay type: cell-based, human; conditions: DU145 cells, 24 h; compound 4 at 1 µM, compound 11 at 6 µM; normalized to B2M, 2^−∆∆Ct vs vehicle (1.00); mean ± SEM
[11] = tested on: CCN2; test: RT-qPCR mRNA level of CCN2 in DU-145 cells; assay type: cell-based, human; conditions: DU145 cells, 24 h; compound 4 at 1 µM, compound 11 at 6 µM; normalized to B2M, 2^−∆∆Ct vs vehicle (1.00); mean ± SEM
Protocol: as §4, §5

[12] = tested on: HDAC4; test: RT-qPCR mRNA level of HDAC4 in DU-145 cells; assay type: cell-based, human; conditions: DU145 cells, 24 h; compound 4 at 1 µM, compound 11 at 6 µM; normalized to B2M, 2^−∆∆Ct vs vehicle (1.00); mean ± SEM
Protocol: as §4, §5

[13] = tested on: DU-145, MCF-7 and T24 cancer cells; test: Antiproliferative activity over DU-145, MCF-7 and T24 cancer cells; assay type: cell-based, human; conditions: summary of Table 1 (DU-145, MCF-7, T24)
Protocol: as §1, §3

Row | −E^I½ (mV) [4] [mV] | half-wave potential [4] [mV] | IC50 range over the cancer cell lines [13] | Compound | IC50 [1] [µM] | IC50 [2] [µM] | IC50 [3] [µM] | IC50 [5] [µM] | MSI (mean selective index) [6] | Relative expression level (mRNA level) TP53 [7] | Relative expression level (mRNA level) GSR [8] | Relative expression level (mRNA level) CDC25A [9] | Relative expression level (mRNA level) TNF [10] | Relative expression level (mRNA level) CCN2 [11] | Relative expression level (mRNA level) HDAC4 [12]
1 | 604 | – | – | COc1ccc(C(=O)C2=C(Nc3ccccc3)C(=O)c3ccccc3C2=O)cc1OC [Compound 7, 2-(Phenylamino)-3-(3,4-dimethoxybenzoyl)naphthalene-1,4-dione] | 10.6 ± 0.27 | 79.9 ± 10.4 | 11.9 ± 0.22 | 15.2 ± 0.88 | 6.4 | – | – | – | – | – | –
2 | 770 | – | – | Cc1ccc(C(=O)C2=C(Nc3ccccc3)C(=O)c3ccccc3C2=O)cc1 [Compound 10, 2-(Phenylamino)-3-(4-methylbenzoyl)naphthalene-1,4-dione] | 14.2 ± 0.53 | 78.8 ± 5.53 | 11.1 ± 0.57 | 21.5 ± 2.26 | 5.0 | – | – | – | – | – | –
3 | 480 | – | almost devoid of activity | CCCCCCCCCC(=O)C1=C(Nc2ccccc2)C(=O)c2ccccc2C1=O [Compound 2, 2-(Phenylamino)-3-decanoylnaphthalene-1,4-dione] | > 100 | 79.8 ± 9.74 | > 100 | > 100 | < 0.8 | – | – | – | – | – | –
4 | 685 | −685 | – | O=C(C1=C(Nc2ccccc2)C(=O)c2ccccc2C1=O)c1ccc[nH]1 [Compound 14, 2-(Phenylamino)-3-(1H-pyrrole-2-carbonyl)naphthalene-1,4-dione] | 10.7 ± 0.35 | 13.7 ± 1.36 | 14.5 ± 0.25 | 21.7 ± 0.22 | 0.9 | – | – | – | – | – | –
5 | 595 | – | – | COc1cc(C(=O)C2=C(Nc3ccccc3)C(=O)c3ccccc3C2=O)ccc1O [Compound 9, 2-(Phenylamino)-3-(4-hydroxy-3-methoxybenzoyl)naphthalene-1,4-dione] | 5.81 ± 0.71 | 47.7 ± 3.29 | 12.5 ± 0.55 | 13.8 ± 1.87 | 4.5 | – | – | – | – | – | –
6 | 552 | −552 | – | O=C(C1=C(Nc2ccccc2)C(=O)c2ccccc2C1=O)c1cccs1 [Compound 12] | 4.2 ± 0.06 | 24.8 ± 1.41 | 6.97 ± 0.6 | 11.7 ± 0.89 | 3.3 | – | – | – | – | – | –

Row | Compound | −E^I½ (mV) [4] [mV] | half-wave potential [4] [mV] | IC50 range over the cancer cell lines [13] | IC50 [1] [µM] | IC50 [2] [µM] | IC50 [3] [µM] | IC50 [5] [µM] | MSI (mean selective index) [6] | Relative expression level (mRNA level) TP53 [7] | Relative expression level (mRNA level) GSR [8] | Relative expression level (mRNA level) CDC25A [9] | Relative expression level (mRNA level) TNF [10] | Relative expression level (mRNA level) CCN2 [11] | Relative expression level (mRNA level) HDAC4 [12]
7 | O=C(C1=C(Nc2ccccc2)C(=O)c2ccccc2C1=O)c1ccco1 [Compound 11] | 578 | −578 | – | 4.64 ± 0.23 | > 100 | 5.45 ± 0.21 | 11.7 ± 0.84 | 13.7 | 0.87 ± 0.05 | 0.94 ± 0.06 | 0.90 ± 0.05 | 0.93 ± 0.08 | 0.95 ± 0.09 | 0.81 ± 0.07
